What was measured:
Format in all cases: functional
Candida albicans = experiment: Antifungal activity against Candida albicans ATCC 48130 assessed as inhibition of fungal growth measured after 18 hrs by CLSI protocol based microbroth dilution method
Staphylococcus aureus = experiment: Antibacterial activity against Staphylococcus aureus ATCC 11632 assessed as inhibition of bacterial growth measured after 18 hrs by CLSI protocol based microbroth dilution method
Micrococcus luteus = experiment: Antibacterial activity against Micrococcus luteus ATCC 10240 assessed as inhibition of bacterial growth measured after 18 hrs by CLSI protocol based microbroth dilution method
Bacillus subtilis = experiment: Antibacterial activity against Bacillus subtilis ATCC 6633 assessed as inhibition of bacterial growth measured after 18 hrs by CLSI protocol based microbroth dilution method

Measured: MIC90

CC[C@H]1[C@@H]2C=C[C@@H]3[C@H]4C/C=C\C(=O)NCCC[C@@H]5NC(=O)C(=C5O)C(=O)/C=C/[C@@H]4C[C@@H]3[C@H]2C[C@H]1C
22.4 µM: all assays above

Reference: ChEMBL document CHEMBL5046269, “Multifunctional P450 Monooxygenase CftA Diversifies the Clifednamide Pool through Tandem C-H Bond Activations” (2022)
